This assay deals with T1, KRAS G12C (Homo sapiens, UniProt P01116, G12C).
T1 construct: KRAS G12C (amino acid region: 1-169)
The assay can be described thus: Inhibitory activity on the KRAS G12C nucleotide (GDP-GTP) exchange reaction. To be noted: Bodipy FL GDP-bound KRAS G12C 25 nM; preincubation at 25° C. for 4 hours; SOS1 100 nM, GppNHp 1 μM, reaction for 30 minutes. In kind it is biochemical. A digest of the protocol: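 Bodipy FL-GDP-loaded KRAS G12C (aa 1-169, 25 nM) preincubated with compound 4 h at 25 °C in pH 7.5 Tris buffer, 5% DMSO; exchange started with SOS1 (aa 564-1049, 100 nM) and 1 μM GppNHp for 30 min. Fluorescence change (ex 485/em 520 nm) normalized to DMSO and no-GppNHp controls; IC50 calculated.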

The source of these data is US20230181536A1, “ANTICANCER COMBINATION THERAPY WITH N-(1-ACRYLOYL-AZETIDIN-3-YL)-2-((1H-INDAZOL-3-YL)AMINO)METHYL)-1H-IMIDAZOLE-5-CARBOXAMIDE INHIBITOR OF KRAS-G12C” (TAIHO PHARMACEUTICAL CO., LTD., priority 2020, published 2023).

SMILES strings stand for the structures.

T1 sequence (P01116 1-169 isoform P01116-2 G12C): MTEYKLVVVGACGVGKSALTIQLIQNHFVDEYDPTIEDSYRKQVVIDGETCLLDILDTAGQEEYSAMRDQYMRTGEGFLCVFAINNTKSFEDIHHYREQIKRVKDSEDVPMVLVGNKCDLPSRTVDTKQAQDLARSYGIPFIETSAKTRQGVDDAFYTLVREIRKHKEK

Consider `C=CC(=O)N1CC(NC(=O)c2c(C)nc(CNc3n[nH]c4ccc(C(C)(C)C)cc34)n2C(C)C)C1` [Example 42, N-(1-acryloylazetidin-3-yl)-2-(((5-(tert-butyl)-1H-indazol-3-yl)amino)methyl)-1-isopropyl-4-methyl-1H-imidazole-5-carboxamide], for which half-maximal inhibition (IC50) was put at 0.068 µM.

With `C=CC(=O)N1CC(NC(=O)c2c(Cl)nc(CNc3n[nH]c4cc(Cl)c(C(=C)C(F)(F)F)cc34)n2C(C)C)C1` [Example 43, N-(1-acryloylazetidin-3-yl)-4-chloro-2-(((6-chloro-5-(3,3,3-trifluoroprop-1-en-2-yl)-1H-indazol-3-yl)amino)methyl)-1-isopropyl-1H-imidazole-5-carboxamide], it took 0.809 µM to reach half-maximal inhibition (IC50).

As for `C=CC(=O)N1CC(NC(=O)c2c(Cl)nc(CNc3n[nH]c4cc(Cl)c(C5(C(F)(F)F)CC5)cc34)n2C(C)C)C1` [Example 44, N-(1-acryloylazetidin-3-yl)-4-chloro-2-(((6-chloro-5-(-(trifluoromethyl)cyclopropyl)-1H-indazol-3-yl)amino)methyl)-1-isopropyl-1H-imidazole-5-carboxamide], the midpoint of inhibition, the IC50, lay at 0.18 µM.

In the case of `C=CC(=O)N1CC(NC(=O)c2c(Cl)nc(CNc3n[nH]c4cc(Cl)c(C(C)C)cc34)n2C(C)C)C1` [Example 45, N-(1-acryloylazetidin-3-yl)-4-chloro-2-(((6-chloro-5-isopropyl-1H-indazol-3-yl)amino)methyl)-1-isopropyl-1H-imidazole-5-carboxamide], half-maximal inhibition (IC50) required 0.024 µM.

For `C=CC(=O)NC1CN(C(=O)c2c(C)nc(CNc3n[nH]c4cc(Cl)c(C(C)(C)C)cc34)n2C)C1` [Example 46, N-(1-(2-(((5-(tert-butyl)-6-chloro-1H-indazol-3-yl)amino)methyl)-1,4-dimethyl-1H-imidazole-5-carbonyl)azetidin-3-yl) acrylamide], the IC50 (as a rule, the point on the concentration scale where inhibition reaches its midpoint) stood at 0.092 µM.

For the molecule `C=CC(=O)N1CCC(NC(=O)c2c(C)nc(CNc3n[nH]c4cc(Cl)c(C(C)(C)C)cc34)n2C)CC1` [Example 47, N-(1-acryloylpiperidin-4-yl)-2-(((5-(tert-butyl)-6-chloro-1H-indazol-3-yl)amino)methyl)-1,4-dimethyl-1H-imidazole-5-carboxamide], it took 1.73 µM to reach half-maximal inhibition (IC50).

Take `C=CC(=O)N1CCC(NC(=O)c2c(C)nc(CNc3n[nH]c4cc(Cl)c(C(C)(C)C)cc34)n2C)C1` (stereo not shown) [Example 48, N-(1-acryloylpyrrolidin-3-yl)-2-(((5-(tert-butyl)-6-chloro-1H-indazol-3-yl)amino)methyl)-1,4-dimethyl-1H-imidazole-5-carboxamide]: it took 0.126 µM to reach half-maximal inhibition (IC50).

As to `C=CC(=O)N1CC(N(C)C(=O)c2c(C)nc(CNc3n[nH]c4cc(Cl)c(C(C)(C)C)cc34)n2C)C1` [Example 49, N-(1-acryloylazetidin-3-yl)-2-(((5-(tert-butyl)-6-chloro-1H-indazol-3-yl)amino)methyl)-N,1,4-trimethyl-1H-imidazole-5-carboxamide], inhibition was half-maximal at 0.208 µM (IC50).

In the case of `C=CC(=O)N1CCN(C(=O)c2c(C)nc(CNc3n[nH]c4cc(Cl)c(C(C)(C)C)cc34)n2C)CC1` [Example 50, 1-(4-(2-(((5-(Tert-butyl)-6-chloro-1H-indazol-3-yl)amino)methyl)-1,4-dimethyl-1H-imidazole-5-carbonyl)piperazin-1-yl)prop-2-en-1-one], half-maximal inhibition (IC50) was put at 4.28 µM.

As to `C=CC(=O)N(C)C1CN(C(=O)c2c(C)nc(CNc3n[nH]c4cc(Cl)c(C(C)(C)C)cc34)n2C)C1` [Example 51, N-(1-(2-(((5-(tert-butyl)-6-chloro-1H-indazol-3-yl)amino)methyl)-1,4-dimethyl-1H-imidazole-5-carbonyl)azetidin-3-yl)-N-methylacrylamide], the IC50 worked out at 0.042 µM.

On to `C=CC(=O)N1CC(NC(=O)c2c(C)nc(CNc3n[nH]c4cc(Cl)c(C(C)(C)C)cc34)n2C)C(F)(F)C1` (stereo not shown) [Example 53, N-(1-acryloyl-4,4-difluoropyrrolidin-3-yl)-2-(((5-(tert-butyl)-6-chloro-1H-indazol-3-yl)amino)methyl)-1,4-dimethyl-1H-imidazole-5-carboxamide], for which inhibition was half-maximal at 0.042 µM (IC50).

On to `C=CC(=O)N1C[C@H](NC(=O)c2c(C)nc(CNc3n[nH]c4cc(Cl)c(C(C)(C)C)cc34)n2C)C2(CC2)C1` [Example 54, (R)-N-(5-acryloyl-5-azaspiro[2.4]heptan-7-yl)-2-(((5-(tert-butyl)-6-chloro-1H-indazol-3-yl)amino)methyl)-1,4-dimethyl-1H-imidazole-5-carboxamide], for which the IC50 was found to be 0.301 µM.

`C=CC(=O)N1C[C@@H](C)[C@@H](NC(=O)c2c(C)nc(CNc3n[nH]c4cc(Cl)c(C(C)(C)C)cc34)n2C)C1` [Example 55, N-((3R,4R)-1-acryloyl-4-methylpyrrolidin-3-yl)-2-(((5-(tert-butyl)-6-chloro-1H-indazol-3-yl)amino)methyl)-1,4-dimethyl-1H-imidazole-5-carboxamide] had an IC50 of 0.024 µM.

As for `C=CC(=O)N1C[C@@H](O)[C@@H](NC(=O)c2c(C)nc(CNc3n[nH]c4cc(Cl)c(C(C)(C)C)cc34)n2C)C1` [Example 56, N-((3S,4R)-1-acryloyl-4-hydroxypyrrolidin-3-yl)-2-(((5-(tert-butyl)-6-chloro-1H-indazol-3-yl)amino)methyl)-1,4-dimethyl-1H-imidazole-5-carboxamide], half-maximal inhibition (IC50) required 0.198 µM.

For the molecule `C=CC(=O)N1C[C@@H](F)[C@@H](NC(=O)c2c(C)nc(CNc3n[nH]c4cc(Cl)c(C(C)(C)C)cc34)n2C)C1` [Example 57, N-((3S,4R)-1-acryloyl-4-fluoropyrrolidin-3-yl)-2-(((5-(tert-butyl)-6-chloro-1H-indazol-3-yl)amino)methyl)-1,4-dimethyl-1H-imidazole-5-carboxamide], the IC50 amounted to 0.324 µM.

With `C=CC(=O)N1C[C@@H](CO)[C@@H](NC(=O)c2c(C)nc(CNc3n[nH]c4cc(Cl)c(C(C)(C)C)cc34)n2C)C1` [Example 58, N-((3R,4R)-1-acryloyl-4-(hydroxymethyl)pyrrolidin-3-yl)-2-(((5-(tert-butyl)-6-chloro-1H-indazol-3-yl)amino)methyl)-1,4-dimethyl-1H-imidazole-5-carboxamide], inhibition was half-maximal at 0.028 µM (IC50).

Consider `C=CC(=O)N1C[C@H](NC(=O)c2c(C)nc(CNc3n[nH]c4cc(Cl)c(C(C)(C)C)cc34)n2C)[C@@H](C)C1` [Example 60, N-((3R,4S)-1-acryloyl-4-methylpyrrolidin-3-yl)-2-(((5-(tert-butyl)-6-chloro-1H-indazol-3-yl)amino)methyl)-1,4-dimethyl-1H-imidazole-5-carboxamide], for which the IC50 came to 1.5 µM.

For `C=CC(=O)N1C[C@H](NC(=O)c2c(C)nc(CNc3n[nH]c4cc(Cl)c(C(C)(C)C)cc34)n2C)[C@H](OC)C1` [Example 61, N-((3S,4R)-1-acryloyl-4-methoxypyrrolidin-3-yl)-2-(((5-(tert-butyl)-6-chloro-1H-indazol-3-yl)amino)methyl)-1,4-dimethyl-1H-imidazole-5-carboxamide], inhibition was half-maximal at 0.21 µM (IC50).

Molecule `C=CC(=O)N1C[C@H](NC(=O)c2c(C)nc(CNc3n[nH]c4cc(Cl)c(C(C)(C)C)cc34)n2C)[C@@H](O)C1` [Example 62, N-((3S,4S)-1-acryloyl-4-hydroxypyrrolidin-3-yl)-2-(((5-(tert-butyl)-6-chloro-1H-indazol-3-yl)amino)methyl)-1,4-dimethyl-1H-imidazole-5-carboxamide] returned an IC50 of 0.096 µM.

As to `C=CC(=O)N1C[C@H](NC(=O)c2c(C)nc(CNc3n[nH]c4cc(Cl)c(C(C)(C)C)cc34)n2C)[C@@H](OC)C1` [Example 63, N-((3S,4S)-1-acryloyl-4-methoxypyrrolidin-3-yl)-2-(((5-(tert-butyl)-6-chloro-1H-indazol-3-yl)amino)methyl)-1,4-dimethyl-1H-imidazole-5-carboxamide], the IC50 stood at 0.084 µM.

In the case of `C=CC(=O)N1C[C@H](NC(=O)c2c(C)nc(CNc3n[nH]c4cc(Cl)c(C(C)(C)C)cc34)n2C)[C@@H](F)C1` [Example 64, N-((3S,4S)-1-acryloyl-4-fluoropyrrolidin-3-yl)-2-(((5-(tert-butyl)-6-chloro-1H-indazol-3-yl)amino)methyl)-1,4-dimethyl-1H-imidazole-5-carboxamide], half-maximal inhibition (IC50) was put at 0.013 µM.

As to `C=CC(=O)N1C[C@@H](CC#N)[C@@H](NC(=O)c2c(C)nc(CNc3n[nH]c4cc(Cl)c(C(C)(C)C)cc34)n2C)C1` [Example 65, N-((3R,4R)-1-acryloyl-4-(cyanomethyl)pyrrolidin-3-yl)-2-(((5-(tert-butyl)-6-chloro-1H-indazol-3-yl)amino)methyl)-1,4-dimethyl-1H-imidazole-5-carboxamide], it took 0.019 µM to reach half-maximal inhibition (IC50).

In turn, `C=CC(=O)N1C[C@@H](CF)[C@@H](NC(=O)c2c(C)nc(CNc3n[nH]c4cc(Cl)c(C(C)(C)C)cc34)n2C)C1` [Example 66, N-((3R,4R)-1-acryloyl-4-(fluoromethyl)pyrrolidin-3-yl)-2-(((5-(tert-butyl)-6-chloro-1H-indazol-3-yl)amino)methyl)-1,4-dimethyl-1H-imidazole-5-carboxamide] showed an IC50 of 0.02 µM.

`C=CC(=O)N1C[C@@H](COC)[C@@H](NC(=O)c2c(C)nc(CNc3n[nH]c4cc(Cl)c(C(C)(C)C)cc34)n2C)C1` [Example 67, N-((3R,4R)-1-acryloyl-4-(methoxymethyl)pyrrolidin-3-yl)-2-(((5-(tert-butyl)-6-chloro-1H-indazol-3-yl)amino)methyl)-1,4-dimethyl-1H-imidazole-5-carboxamide]: the IC50 came out at 0.024 µM.

The molecule `C=CC(=O)N1C[C@@H](CN(C)C)[C@@H](NC(=O)c2c(C)nc(CNc3n[nH]c4cc(Cl)c(C(C)(C)C)cc34)n2C)C1` [Example 68, N-((3R,4R)-1-acryloyl-4-((dimethylamino)methyl)pyrrolidin-3-yl)-2-(((5-(tert-butyl)-6-chloro-1H-indazol-3-yl)amino)methyl)-1,4-dimethyl-1H-imidazole-5-carboxamide] registered an IC50 of 0.099 µM.
